Source: patent publication US10807985B2 (Blueprint Medicines Corporation, priority 2013, dated 2020)

Experiments:
PDGFRA D842V = PDGFRA D842V (Homo sapiens (Human), UniProt P16234, D842V); test: PDGFRA D842V assay at Km (Caliper electrophoretic mobility shift); conditions: biochemical, 15 uM ATP (Km), 90 minutes at 25 C; read-out: INH PDFGRA D842V
[1] = biological target: KIT D816V kinase activity (KIT autophosphorylation at tyrosine 719) in HMC1.2 cells (Homo sapiens (Human), UniProt P10721, D816V/V560G); test: HMC1.2 autophosphorylation assay (phospho-Y719 c-KIT AlphaLISA); format: cell-based; conditions: HMC1.2 mast cell leukemia cell line (KIT V560G, D816V), 90 minutes compound; read-out: INH-KIT-PHOS-HMC1.2
KIT D816V kinase activity (KIT autophosphorylation at tyrosine 719) in HMC1.2 cells, sequence (P10721 26-976 V560G/D816V): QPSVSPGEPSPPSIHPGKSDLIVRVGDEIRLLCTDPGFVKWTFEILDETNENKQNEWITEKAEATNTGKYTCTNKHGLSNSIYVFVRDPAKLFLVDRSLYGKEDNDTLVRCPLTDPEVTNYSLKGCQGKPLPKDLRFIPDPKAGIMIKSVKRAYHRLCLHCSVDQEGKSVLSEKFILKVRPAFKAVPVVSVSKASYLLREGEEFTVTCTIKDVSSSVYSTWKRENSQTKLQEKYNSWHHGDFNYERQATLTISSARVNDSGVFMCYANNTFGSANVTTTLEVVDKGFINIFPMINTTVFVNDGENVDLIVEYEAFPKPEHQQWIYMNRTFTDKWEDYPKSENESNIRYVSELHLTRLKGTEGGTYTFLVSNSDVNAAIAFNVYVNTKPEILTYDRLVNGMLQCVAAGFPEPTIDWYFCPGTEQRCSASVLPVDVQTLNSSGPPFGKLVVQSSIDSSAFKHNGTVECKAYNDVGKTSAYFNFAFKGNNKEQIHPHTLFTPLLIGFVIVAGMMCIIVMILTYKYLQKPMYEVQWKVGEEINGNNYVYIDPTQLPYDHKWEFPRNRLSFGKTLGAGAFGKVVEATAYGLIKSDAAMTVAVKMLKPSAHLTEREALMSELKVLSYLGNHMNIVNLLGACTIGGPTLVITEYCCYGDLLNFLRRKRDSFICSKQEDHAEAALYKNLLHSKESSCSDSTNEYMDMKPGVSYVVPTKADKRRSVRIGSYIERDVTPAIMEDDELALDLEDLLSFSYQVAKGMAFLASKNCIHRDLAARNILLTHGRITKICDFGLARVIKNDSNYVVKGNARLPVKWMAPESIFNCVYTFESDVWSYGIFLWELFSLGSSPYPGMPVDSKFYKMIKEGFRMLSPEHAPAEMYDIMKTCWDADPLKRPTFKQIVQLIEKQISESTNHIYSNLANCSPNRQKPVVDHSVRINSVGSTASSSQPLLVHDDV

D816V KIT = D816V KIT (Homo sapiens (Human), UniProt P10721, D816V); test: KIT D816V assay at Km (Caliper electrophoretic mobility shift); conditions: biochemical, 15 uM ATP (Km), 90 minutes at 25 C; read-out: INH KIT D816V
D816V KIT, sequence (P10721 26-976 D816V): as the sequence (P10721 26-976 V560G/D816V) above, with G535V counted along it

PDGFRA D842V, sequence (P16234 24-1089 D842V): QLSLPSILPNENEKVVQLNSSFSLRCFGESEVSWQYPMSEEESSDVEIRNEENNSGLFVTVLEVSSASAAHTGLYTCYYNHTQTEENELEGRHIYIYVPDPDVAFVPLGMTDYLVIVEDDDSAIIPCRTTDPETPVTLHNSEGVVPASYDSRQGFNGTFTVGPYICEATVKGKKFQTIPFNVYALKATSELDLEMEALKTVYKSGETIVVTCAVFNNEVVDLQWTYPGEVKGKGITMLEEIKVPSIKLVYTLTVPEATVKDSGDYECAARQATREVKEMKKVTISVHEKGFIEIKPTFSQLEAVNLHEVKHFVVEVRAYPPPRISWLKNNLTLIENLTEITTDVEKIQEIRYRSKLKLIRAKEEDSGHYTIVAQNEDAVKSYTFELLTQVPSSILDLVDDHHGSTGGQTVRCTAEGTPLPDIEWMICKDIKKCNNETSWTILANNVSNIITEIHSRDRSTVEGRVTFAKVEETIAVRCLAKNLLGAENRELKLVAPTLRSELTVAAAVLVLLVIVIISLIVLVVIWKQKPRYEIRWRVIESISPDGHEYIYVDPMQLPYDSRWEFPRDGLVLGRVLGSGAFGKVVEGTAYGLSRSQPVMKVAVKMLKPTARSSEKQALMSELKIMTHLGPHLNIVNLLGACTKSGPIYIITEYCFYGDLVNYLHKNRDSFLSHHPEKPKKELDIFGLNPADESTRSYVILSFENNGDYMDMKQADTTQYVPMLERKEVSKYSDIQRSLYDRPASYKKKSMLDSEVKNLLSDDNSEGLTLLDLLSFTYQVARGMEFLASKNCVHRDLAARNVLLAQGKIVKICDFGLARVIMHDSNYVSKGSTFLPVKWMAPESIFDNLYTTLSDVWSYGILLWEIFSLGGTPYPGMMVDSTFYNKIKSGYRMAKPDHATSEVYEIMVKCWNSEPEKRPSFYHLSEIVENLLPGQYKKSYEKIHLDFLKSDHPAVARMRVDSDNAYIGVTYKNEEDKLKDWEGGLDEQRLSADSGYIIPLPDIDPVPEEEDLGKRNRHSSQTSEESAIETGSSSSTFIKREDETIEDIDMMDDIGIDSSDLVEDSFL

IC50 (PDGFRA D842V) [nM]	IC50 [1] [nM]	IC50 (D816V KIT) [nM]	Compound
< 1	< 50	< 1	Cn1cc(-c2cc3c(N4CCN(c5ncc([C@](C)(O)c6ccc(F)cc6)cn5)CC4)ncnn3c2)cn1 [Compound 45]
< 1	< 50	< 1	Cn1cc(-c2cc3c(N4CCN(c5ncc([C@@](C)(N)c6ccccc6)cn5)CC4)ncnn3c2)cn1 [Compound 22]
1.01 to 10	< 50	1.01 to 10	Cn1cc(-c2cc3c(N4CCN(c5ncc([C@@](N)(c6ccc(F)cc6)C(F)(F)F)cn5)CC4)ncnn3c2)cn1 [Compound 122]
1.01 to 10	50 to 100	1.01 to 10	Fc1ccccc1Sc1cnc(N2CCN(c3ncnn4cc(-c5cnn(C[C@@H]6CNCCO6)c5)cc34)CC2)nc1 [Compound 123, (S)-2-((4-(4-(4-(5-(2-fluorophenylthio)pyrimidin-2-yl)piperazin-1-yl)pyrrolo[1,2-f][1,2,4]triazin-6-yl)-1H-pyrazol-1-yl)methyl)morpholine]
1.01 to 10	100 to 1000	1.01 to 10	Cc1ncc(-c2cc3c(N4CCN(c5ncc([C@](C)(O)c6ccc(F)cc6)cn5)CC4)ncnn3c2)s1 [Compound 87]
1.01 to 10	50 to 100	1.01 to 10	CC[C@@H](c1ccc(F)cc1)c1cnc(N2CCN(c3ncnn4cc(-c5cnn(C)c5)cc34)CC2)nc1 (single isomer, unassigned) [Compound 41]
1.01 to 10	< 50	< 1	Cn1cc(-c2cc3c(N4CCN(c5ncc(Cc6ccc(F)cc6)cn5)CC4)ncnn3c2)cn1 [Compound 14]
< 1	< 50	< 1	C[C@](N)(c1ccc(F)cc1)c1cnc(N2CCN(c3ncnn4cc(-c5cn[nH]c5)cc34)CC2)nc1 [Compound 26]
1.01 to 10	< 50	1.01 to 10	CO[C@](C)(c1ccc(F)cc1)c1cnc(N2CCN(c3ncnn4cc(-c5cnn(C)c5)cc34)CC2)nc1 [Compound 68]
1.01 to 10	50 to 100	1.01 to 10	C[C@](N)(c1ccc(F)cc1)c1cnc(N2CCN(c3ncnn4cc(-c5ccc(F)cc5)cc34)CC2)nc1 [Compound 62]
< 1	50 to 100	1.01 to 10	Cn1cc(-c2cc3c(N4CCN(c5ncc([C@](C)(N)c6ccccc6)cn5)CC4)ncnn3c2)cn1 [Compound 21]
1.01 to 10	< 50	1.01 to 10	Cn1cc(-c2cc3c(N4CCN(c5ncc(C(C)(C)c6ccccc6)cn5)CC4)ncnn3c2)cn1 [Compound 20]
< 1	< 50	< 1	C[C@@H](c1ccccc1)c1cnc(N2CCN(c3ncnn4cc(-c5cnn(C)c5)cc34)CC2)nc1 [Compound 10, (S)-6-(1-methyl-1H-pyrazol-4-yl)-4-(4-(5-(1-phenylethyl)pyrimidin-2-yl)piperazin-1-yl)pyrrolo[1,2-f][1,2,4]triazine]
< 1	< 50	< 1	Cn1cc(-c2cc3c(N4CCN(c5ncc([C@@](C)(O)c6c(F)cc(F)cc6F)cn5)CC4)ncnn3c2)cn1 [Compound 116]
< 1	< 50	< 1	Cn1cc(-c2cc3c(N4CCN(c5ncc([C@](O)(CF)c6ccc(F)cc6)cn5)CC4)ncnn3c2)cn1 [Compound 96]
–	100 to 1000	1.01 to 10	Cn1cc(-c2cc3c(N4CCN(c5ncc([C@@](O)(c6ccc(F)cc6)C6CC6)cn5)CC4)ncnn3c2)cn1 [Compound 104]
–	> 10000	> 100	CN(C)C(=O)c1ccc(-c2cc3c(N4CCN(c5ccccc5)CC4)ncnn3c2)cc1 [Compound 6]
–	> 10000	> 100	COc1ccc(-c2cc3c(N4CCN(c5ccccc5)CC4)ncnn3c2)cc1 [Compound 2]
–	100 to 1000	10 to 100	Cc1ccc(-c2cc3c(N4CCN(c5ncc([C@@](C)(O)c6ccc(F)cc6)cn5)CC4)ncnn3c2)s1 [Compound 82]
–	< 50	< 1	CCn1cc(-c2cc3c(N4CCN(c5ncc([C@@](C)(N)c6ccc(F)cc6)cn5)CC4)ncnn3c2)cn1 [Compound 63]
–	< 50	1.01 to 10	Cn1cc(-c2cc3c(N4CCN(c5ncc([C@H](O)c6ccc(F)cc6)cn5)CC4)ncnn3c2)cn1 [Compound 32]
–	1000 to 10000	10 to 100	CN(C)[C@H](c1ccccc1)c1cnc(N2CCN(c3ncnn4cc(-c5cnn(C)c5)cc34)CC2)nc1 [Compound 37]
–	< 50	< 1	Cn1cc(-c2cc3c(N4CCN(c5ncc([C@@H](CO)c6ccc(F)cc6)cn5)CC4)ncnn3c2)cn1 [Compound 49]
–	100 to 1000	1.01 to 10	Cn1cc(-c2cc3c(N4CCN(c5ncc([C@](O)(c6ccc(F)cc6)C(F)F)cn5)CC4)ncnn3c2)cn1 [Compound 118]
–	100 to 1000	1.01 to 10	Cn1cc(-c2cc3c(N4CCN(c5ncc(C6(c7ccc(F)cc7)COC6)cn5)CC4)ncnn3c2)cn1 [Compound 61]

IC50 (PDGFRA D842V) [nM]	IC50 [1] [nM]	IC50 (D816V KIT) [nM]	Compound
–	100 to 1000	1.01 to 10	CC[C@](O)(c1ccc(F)cc1)c1cnc(N2CCN(c3ncnn4cc(-c5cnn(C)c5)cc34)CC2)nc1 [Compound 69]
–	< 50	< 1	Cn1cc(-c2cc3c(N4CCN(c5ncc([C@@](C)(O)c6ccccc6)cn5)CC4)ncnn3c2)cn1 [Compound 25]
–	< 50	< 1	CCn1cc(-c2cc3c(N4CCN(c5ncc([C@@](C)(O)c6ccc(F)cc6)cn5)CC4)ncnn3c2)cn1 [Compound 75]
–	100 to 1000	1.01 to 10	Cn1cc(-c2cc3c(N4CCN(c5ncc([C@](N)(c6ccc(F)cc6)C(F)F)cn5)CC4)ncnn3c2)cn1 [Compound 112]
–	< 50	1.01 to 10	Cn1cc(-c2cc3c(N4CCN(c5ncc([C@H](CO)c6ccc(F)cc6)cn5)CC4)ncnn3c2)cn1 [Compound 50]
–	< 50	< 1	Cc1ncc(-c2cc3c(N4CCN(c5ncc([C@@](C)(O)c6ccc(F)cc6)cn5)CC4)ncnn3c2)s1 [Compound 88]
–	100 to 1000	10 to 100	CO[C@@](C)(c1ccc(F)cc1)c1cnc(N2CCN(c3ncnn4cc(-c5cnn(C)c5)cc34)CC2)nc1 [Compound 67]
–	50 to 100	< 1	c1ccc(Cc2cnc(N3CCN(c4ncnn5cc(-c6cnn(C[C@@H]7CNCCO7)c6)cc45)CC3)nc2)cc1 [Compound 120]
–	50 to 100	1.01 to 10	Cc1nn(C)cc1-c1cc2c(N3CCN(c4ncc([C@](C)(O)c5ccc(F)cc5)cn4)CC3)ncnn2c1 (single isomer, unassigned) [Compound 71]
–	1000 to 10000	> 100	Cn1cc(-c2cn3ncnc(N4CCN(c5ncc([C@](C)(O)c6ccc(F)cc6)cn5)CC4)c3c2F)cn1 [Compound 89]
–	100 to 1000	10 to 100	C[C@@H]1CN(c2ncnn3cc(-c4cnn(C)c4)cc23)CCN1c1ncc(Sc2ccccc2F)cn1 [Compound 55]
–	100 to 1000	1.01 to 10	NC(=O)c1ccc(-c2cc3c(N4CCN(c5ncc(Cc6ccccc6)cn5)CC4)ncnn3c2)cc1 [Compound 33]
–	< 50	1.01 to 10	Cn1cc(-c2cc3c(N4CCN(c5ncc([C@@H](O)c6ccc(F)cc6)cn5)CC4)ncnn3c2)cn1 [Compound 31]
–	< 50	< 1	Cn1cc(-c2cc3c(N4CCN(c5ncc([C@@](C)(O)c6ccccc6F)cn5)CC4)ncnn3c2)cn1 [Compound 47]
–	100 to 1000	1.01 to 10	Cc1cc(-c2cc3c(N4CCN(c5ncc([C@@](C)(O)c6ccc(F)cc6)cn5)CC4)ncnn3c2)no1 (single isomer, unassigned) [Compound 52]
–	100 to 1000	1.01 to 10	CN(C)[C@@H](c1ccccc1)c1cnc(N2CCN(c3ncnn4cc(-c5cnn(C)c5)cc34)CC2)nc1 [Compound 36, (S)—N,N-dimethyl-1-(2-(4-(6-(1-methyl-1H-pyrazol-4-yl)pyrrolo[2,1-f][1,2,4]triazin-4-yl)piperazin-1-yl)pyrimidin-5-yl)-1-phenylmethanamine]
–	< 50	< 1	Cc1nn(C)cc1-c1cc2c(N3CCN(c4ncc([C@@](C)(O)c5ccc(F)cc5)cn4)CC3)ncnn2c1 (single isomer, unassigned) [Compound 72]
–	< 50	1.01 to 10	CC(C)(C)OC(=O)N1CC=C(c2cc3c(N4CCN(c5ncc([C@@](C)(O)c6ccc(F)cc6)cn5)CC4)ncnn3c2)CC1 [Compound 124]
–	100 to 1000	10 to 100	Cn1cc(-c2cc3c(N4CCN(c5ncc([C@](C)(O)c6ccc(F)cc6Cl)cn5)CC4)ncnn3c2)cn1 [Compound 109]
–	1000 to 10000	10 to 100	Cn1cc(-c2cc3c(N4CCN(c5ncc(S(=O)(=O)c6ccc(F)cc6)cn5)CC4)ncnn3c2)cn1 [Compound 99]
–	< 50	1.01 to 10	Cn1cc(-c2cc3c(N4CCN(c5ncc([C@@](C)(O)c6ccc(F)cc6Cl)cn5)CC4)ncnn3c2)cn1 [Compound 110]
–	100 to 1000	1.01 to 10	C[C@](O)(c1ccc(F)cc1)c1cnc(N2CCN(c3ncnn4cc(-c5cccc(F)c5)cc34)CC2)nc1 [Compound 66]
< 1	–	< 1	C[C@@](O)(c1cnc(N2CCN(c3ncnn4cc(-c5cn[nH]c5)cc34)CC2)nc1)c1ccc(F)cc1F [Compound 58]
–	> 10000	> 100	COc1cc(OC)cc(-c2cc3c(N4CCN(c5ccccc5)CC4)ncnn3c2)c1 [Compound 4]
–	100 to 1000	1.01 to 10	N#Cc1ccc(-c2cc3c(N4CCN(c5ncc(Cc6ccccc6)cn5)CC4)ncnn3c2)cc1 [Compound 16]
